# Earlier results as cited in patent US12622900B2, “Methods and compositions for treating gastric ulcers” (LUODA PHARMA LIMITED, priority 2015, dated 2026).
# Experiments:
# gastric ulcers = conditions: traditional oral dosing
# gastric acid secretion = conditions: single intramuscular injection at 1 mg/kg bodyweight, omeprazole monohydrate dissolved in saline
smiles,measurement,setting,value
"COc1ccc2nc([S+]([O-])Cc3ncc(C)c(OC)c3C)[nH]c2c1 (stereo not drawn) [omeprazole, 6-methoxy-2-[(4-methoxy-3,5-dimethylpyridin-2-yl)methanesulfinyl]-1H-1,3-benzodiazole]",Gastric ulcers healed,gastric ulcers; in 28-35 days,25%
same,Squamous ulcers that will heal,gastric ulcers; within a 28 day treatment period,70-80%
same,Period for which the dose is effective,gastric acid; 1-2 g daily oral dose to horses,12 to 24 h
same,Duration of adequate gastric acid suppression,gastric acid; oral omeprazole preparations in horses (Merritt et al),12 h
same,Duration of pentagastrin-stimulated acid suppression,gastric acid secretion,12 h
same,Duration of reduced basal acid secretion,gastric acid secretion,around 23 hours
